{"source": "patent US20050037983A1", "about": "“Compositions and methods for the treatment of depression and other affective disorders” (priority 2003, published 2005)", "key": {"[1]": {"system": "subject with major depression", "assay": "Case reports: add-on anti-inflammatory in subjects with major depression, rated on 17 item Hamilton rating scale for depression (HAMD)", "type": "in vivo, human", "conditions": "person", "description": "A subject with a 4-5 month history of depression was used in this example. The subject's complaints included low mood, anhedonia, anxiety, poor concentration, significant initial insomnia, mild anorexia and weight loss of approximately 2 kilos. Symptoms were precipitated by problems both in the work and home environment. A diagnosis of major depression was made.\nOver three weeks this was increased to 300 mg daily.\nRofecoxib 50 mg daily was added to the venlafaxine.\nA subject with a long history of recurring depression was used in this example. The current episode was present for 3 months when initially seen. They were low in mood, tearful, irritable, very anxious and had significant sleep disturbance in the form of initial and delayed insomnia. There was no clear precipitant for their symptoms.\nThey had been taking venlafaxine for approximately 1 year at a maximum tolerated dose of 225 mg daily."}, "[2]": {"conditions": "in vivo; cited from earlier work"}, "cyclooxygenase": {"system": "cyclooxygenase", "conditions": "cited from earlier work"}, "IL-6": {"system": "IL-6", "conditions": "in vitro; cited from earlier work"}, "[3]": {"system": "subjects with DSM-IV major depression", "assay": "Human study: 36 subjects with DSM-IV major depression, three randomised groups, response rates", "type": "in vivo", "conditions": "Hamilton score greater than 20 at entry; Vioxx 30 mg/day; compared among three groups incl. placebo", "description": "Thirty six (36) subjects with DSM-IV major depression and Hamilton score greater than 20 were recruited. Subjects were randomly allocated into each of three groups • 1. SSRI plus Vioxx 30 mg/day • 2. Vioxx, 30 mg/day • 3. Placebo All subjects have base line Il-6, IL-1 and cortisol levels assayed using specific assays. Biochemical assays are repeated at the end of weeks 1, 3 and 6. […] Response to treatment was associated with a drop in cortisol levels and pro-inflammatory cytokines."}, "[4]": {"system": "subjects treated with IFN-α", "conditions": "cited from earlier work; for IL-6 level compared with placebo: as early as four hours after a single dose"}, "neutrophils": {"system": "neutrophils", "conditions": "cited from earlier work"}, "[5]": {"conditions": "subjects treated with interferon alpha"}}, "note": "Like-named read-outs stand apart in the source and are kept apart here.", "data": [{"molecule": "CC(C)Cc1ccc(C(C)C(=O)O)cc1", "note": "(stereo not drawn) [Ibruprofen]", "values": [{"measurement": "HAMD", "setting": "[1]; baseline HAMD 20, 400 mg three times daily added to venlafaxine 225 mg daily, day 14", "result": 8}, {"measurement": "day of reported symptomatic improvement", "setting": "[1]; 400 mg three times daily added to venlafaxine", "result": "≤ 8", "unit": "days"}]}, {"molecule": "C[C@@H](C(=O)O)c1ccc(-c2ccccc2)c(F)c1", "note": "[R-flurbiprofen]", "values": [{"measurement": "gastrointestinal mucosal damage", "setting": "[2]", "result": "does not cause gastrointestinal mucosal damage"}, {"measurement": "inhibition of cyclooxygenase activity", "setting": "cyclooxygenase", "result": "does not inhibit cyclooxygenase activity"}, {"measurement": "potency of R-enantiomer versus S-enantiomer in down-regulating IL-6 levels", "setting": "IL-6", "result": "significantly more potent"}]}, {"molecule": "CS(=O)(=O)c1ccc(C2=C(c3ccccc3)C(=O)OC2)cc1", "note": "[Rofecoxib]", "values": [{"measurement": "response rates", "setting": "[3]", "result": "greater than that observed for placebo"}, {"measurement": "HAMD score", "setting": "[1]; baseline HAMD 22, Rofecoxib 50 mg daily added to venlafaxine 300 mg daily, after 1 week", "result": 11}, {"measurement": "time to improvement after commencing treatment", "setting": "[1]; Rofecoxib 50 mg daily added to venlafaxine, subject's description", "result": "≤ 5", "unit": "days"}, {"measurement": "clinical state at review", "setting": "[1]; Rofecoxib added to venlafaxine, reviewed 2 weeks later", "result": "sustained"}]}, {"molecule": "CN(C)CCCC1(c2ccc(F)cc2)OCc2cc(C#N)ccc21", "note": "(stereo not drawn) [citalopram]", "values": [{"measurement": "clinical response", "setting": "[1]; citalopram 20 mg daily alone, after 5 weeks", "result": "no response"}]}, {"molecule": "CC(C)Cc1ccc([C@@H](C)C(=O)O)cc1", "note": "[ibuprofen, R-ibuprofen]", "values": [{"measurement": "potency of R-enantiomer versus S-enantiomer in down-regulating IL-6 levels", "setting": "IL-6", "result": "significantly more potent"}]}, {"molecule": "C[C@@H](C(=O)O)c1cccc(C(=O)c2ccccc2)c1", "note": "[ketoprofen, R-ketoprofen]", "values": [{"measurement": "potency of R-enantiomer versus S-enantiomer in down-regulating IL-6 levels", "setting": "IL-6", "result": "significantly more potent"}]}, {"molecule": "Fc1ccc([C@@H]2CCNC[C@H]2COc2ccc3c(c2)OCO3)cc1", "note": "[paroxetine]", "values": [{"measurement": "impact in preventing depression", "setting": "[4]; [5]", "result": "modest impact"}]}, {"molecule": "O=C(O)c1cc(/N=N/c2ccc(S(=O)(=O)Nc3ccccn3)cc2)ccc1O", "note": "[sulfasalazine]", "values": [{"measurement": "induction of apoptosis in neutrophils", "setting": "neutrophils", "result": "capable of inducing apoptosis"}]}, {"molecule": "COc1ccc(C(CN(C)C)C2(O)CCCCC2)cc1", "note": "(stereo not drawn) [venlafaxine]", "values": [{"measurement": "clinical improvement", "setting": "[1]; venlafaxine 300 mg daily alone, after 4 weeks on this dose", "result": "No clinical improvement"}]}, {"molecule": "IFN-α", "values": [{"measurement": "IL-6 level compared with placebo", "setting": "[4]", "result": "significantly increased"}, {"measurement": "IL-6 level compared with placebo", "setting": "[4]; listed as IFN-alpha", "result": "significantly increases"}, {"measurement": "subjects in whom major depression is reported", "setting": "[4]; [5]", "result": "up to 40%"}]}]}
